Measured values as given in patent US20230398211A1, “Liposomes Containing TLR4 Agonist, Preparation and Uses Thereof” (priority 2020, published 2023).
pEC50: −log10 of the molar value.

Key:
[1] = Alcohol solubility of E6020 and MPL in ethanol by nephelometry
Method: The appearance and increase of opalescence, indicative of insolubility was followed by nephelometry.
RNU (Relative nephelometry Unit) of each solution was recorded and plotted on a graph.

sheep red blood cells = test: Hemolysis assay; format: cell-based; conditions: 30 minutes at 37° C.
Method: Before use, red blood cells (Sheep red blood cells 10%, Rockland, ref R405-0050, lot BP30202 (stored+4° C.) were washed in cold PBS. Five mL of sheep red blood cells were transferred into a 15 mL Falcon tube and 7 mL of cold PBS were added. Cells were centrifuged for 10 min 700 g at 4° C. Supernatant was carefully removed and cell pellet was suspended in 12 mL of cold PBS. Then, cell suspension was centrifuged for 10 min, 700 g at 4° C. The cell suspension and centrifugation steps were repeated twice. Finally, cells were suspended in PBS in a final volume of 5 mL ready-to-use.
In a round bottom P96 plate, 100 μL per well of PBS were added. Then, 100 μL per well of saponin QS21 or QS7 solutions were added in serial 2-fold dilutions (1.6 μM to 200 μM-) in a citrate buffer (Citrate 10 mM, NaCl 140 mM, pH 6.3). […]
Twenty-five μL/well of 10% red blood cell solution were added, and the plates were incubated for 30 minutes at 37° C. and then were centrifuged for 5 min 700 g at room temperature. Eighty μL per well of surnageant were collected and transfered to a flat bottom plate for spectrophotometer reading (OD 540 nm). The percentage of cell hemolysis is calculated for each saponin concentration tested in μM according to the formula: 100×[(sample absorbance−negative control absorbance)[…](positive control absorbance−negative control absorbance)]. […]

| Substance | appearance of ethanol solution (opalescence) ([1]; 0.5, 1.0, 2.0 and 10 mg/ml in absolute ethanol, mixed 3h at room temperature) | solubility in ethanol ([1]; absolute ethanol, room temperature (about 25° C.), nephelometry) | pEC50 (sheep red blood cells; read-out: effective concentration inducing hemolysis of 50% red blood cells (EC50)) | erythrocyte hemolysis (sheep red blood cells; from 25 μM to 100 μM) [%] |
| --- | --- | --- | --- | --- |
| 3-O-desacyl-4′-monophosphoryl lipid A [MPL] | opalescent even at the lowest concentration tested | very low solubility |  |  |
| QS21 |  |  | 5.38 | 100 |
